Legend:
Carboplatin = compound: C1CC(C1)(C(=O)[O-])C(=O)[O-].N.N.[Pt+2] [Carboplatin]; conditions: max 10 µM
Summary of the method: (§1)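 Plates with 1536 wells received cancer cell lines in 7.5 μl of DMEM/F12 or RPMI containing 10% FBS. After 24 hours at 37°C and 5% CO2, cells were dosed for 72 hours with final DMSO typically 0.2%, and viability was read by CellTiter-Glo 2.0 luminescence scaled between blank-well and DMSO-well means. The single-agent IC50 was taken from a logistic fit of the dose responses made with a non-linear mixed effects model, that logistic curve having two parameters.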

AZD5363 = compound: C1CN(CCC1(C(=O)N[C@@H](CCO)C2=CC=C(C=C2)Cl)N)C3=NC=NC4=C3C=CN4 [AZD5363]; conditions: max 10 µM
Summary of the method: as §1

AZD1775 = compound: C=CCn1c(=O)c2cnc(Nc3ccc(N4CCN(C)CC4)cc3)nc2n1-c1cccc(C(C)(C)O)n1 [AZD1775]; conditions: max 3 µM
Summary of the method: as §1

Trametinib = compound: CC(=O)Nc1cccc(-n2c(=O)n(C3CC3)c(=O)c3c(Nc4ccc(I)cc4F)n(C)c(=O)c(C)c32)c1 [Trametinib]; conditions: max 1 µM
Summary of the method: as §1

Paclitaxel = compound: CC(=O)O[C@H]1C(=O)[C@@]2(C)[C@H]([C@H](OC(=O)c3ccccc3)[C@]3(O)C[C@H](OC(=O)[C@H](O)[C@@H](NC(=O)c4ccccc4)c4ccccc4)C(C)=C1C3(C)C)[C@]1(OC(C)=O)CO[C@@H]1C[C@@H]2O [Paclitaxel]; conditions: max 3 µM
Summary of the method: as §1

Palbociclib = compound: CC(=O)c1c(C)c2cnc(Nc3ccc(N4CCNCC4)cn3)nc2n(C2CCCC2)c1=O [Palbociclib]; conditions: max 10 µM
Summary of the method: as §1

AZD1390 = compound: CC(C)n1c(=O)n(C)c2cnc3cc(F)c(-c4ccc(OCCCN5CCCCC5)nc4)cc3c21 [AZD1390]; conditions: max 0.3 µM
Summary of the method: as §1

Venetoclax = compound: CC1(C)CCC(CN2CCN(c3ccc(C(=O)NS(=O)(=O)c4ccc(NCC5CCOCC5)c([N+](=O)[O-])c4)c(Oc4cnc5[nH]ccc5c4)c3)CC2)=C(c2ccc(Cl)cc2)C1 [Venetoclax]; conditions: max 1 µM
Summary of the method: as §1

Dasatinib = compound: CC1=C(C(=CC=C1)Cl)NC(=O)C2=CN=C(S2)NC3=CC(=NC(=N3)C)N4CCN(CC4)CCO [Dasatinib]; conditions: max 2 µM
Summary of the method: as §1

SG3199 = compound: CC1=CN2[C@@H](C1)C=NC3=CC(=C(C=C3C2=O)OC)OCCCCCOC4=C(C=C5C(=C4)N=C[C@@H]6CC(=CN6C5=O)C)OC [SG3199]; conditions: max 0.001 µM
Summary of the method: as §1

AZD2811 = compound: CCN(CCO)CCCOc1ccc2c(Nc3cc(CC(=O)Nc4cccc(F)c4)[nH]n3)ncnc2c1 [AZD2811]; conditions: max 1 µM
Summary of the method: as §1

SN-38 = compound: CCc1c2c(nc3ccc(O)cc13)-c1cc3c(c(=O)n1C2)COC(=O)[C@]3(O)CC [SN-38]; conditions: max 0.3 µM
Summary of the method: as §1

AZD0156 = compound: CN(C)CCCOc1ccc(-c2ccc3ncc4c(c3c2)n(C2CCOCC2)c(=O)n4C)cn1 [AZD0156]; conditions: max 3 µM
Summary of the method: as §1

AZD4320 = compound: CN(CC[C@H](CSC1=CC=CC=C1)NC2=C(C=C(C=C2)S(=O)(=O)NC(=O)C3=CC=C(C=C3)N4CCC(CC4)[C@H](C5=CC=CC=C5C6=CC=C(C=C6)Cl)O)S(=O)(=O)C(F)(F)F)CCO [AZD4320]; conditions: max 1 µM
Summary of the method: as §1

Alisertib = compound: COc1cc(Nc2ncc3c(n2)-c2ccc(Cl)cc2C(c2c(F)cccc2OC)=NC3)ccc1C(=O)O [Alisertib]; conditions: max 10 µM
Summary of the method: as §1

Etoposide = compound: COc1cc([C@@H]2c3cc4c(cc3[C@@H](O[C@@H]3O[C@@H]5CO[C@@H](C)O[C@H]5[C@H](O)[C@H]3O)[C@H]3COC(=O)[C@H]23)OCO4)cc(OC)c1O [Etoposide]; conditions: max 10 µM
Summary of the method: as §1

Gefitinib = compound: COc1cc2ncnc(Nc3ccc(F)c(Cl)c3)c2cc1OCCCN1CCOCC1 [Gefitinib]; conditions: max 10 µM
Summary of the method: as §1

Prexasertib = compound: COc1cccc(OCCCN)c1-c1cc(Nc2cnc(C#N)cn2)n[nH]1 [Prexasertib]; conditions: max 1 µM
Summary of the method: as §1

Doxorubicin = compound: COc1cccc2c1C(=O)c1c(O)c3c(c(O)c1C2=O)C[C@@](O)(C(=O)CO)C[C@@H]3O[C@H]1C[C@H](N)[C@H](O)[C@H](C)O1 [Doxorubicin]; conditions: max 1 µM
Summary of the method: as §1

AZD5153 = compound: COc1nnc2ccc(N3CCC(c4ccc(OCCN5CCN(C)C(=O)[C@H]5C)cc4)CC3)nn12 [AZD5153]; conditions: max 1 µM
Summary of the method: as §1

Lapatinib = compound: CS(=O)(=O)CCNCc1ccc(-c2ccc3ncnc(Nc4ccc(OCc5cccc(F)c5)c(Cl)c4)c3c2)o1 [Lapatinib]; conditions: max 10 µM
Summary of the method: as §1

AZD8186 = compound: C[C@@H](Nc1cc(F)cc(F)c1)c1cc(C(=O)N(C)C)cc2c(=O)cc(N3CCOCC3)oc12 [AZD8186]; conditions: max 10 µM
Summary of the method: as §1

Crizotinib = compound: C[C@@H](Oc1cc(-c2cnn(C3CCNCC3)c2)cnc1N)c1c(Cl)ccc(F)c1Cl [Crizotinib]; conditions: max 10 µM
Summary of the method: as §1

Savolitinib = compound: C[C@@H](c1ccc2nccn2c1)n1nnc2ncc(-c3cnn(C)c3)nc21 [Savolitinib]; conditions: max 1 µM
Summary of the method: as §1

AZD6738 = compound: C[C@@H]1COCCN1C2=NC(=NC(=C2)C3(CC3)[S@](=N)(=O)C)C4=C5C=CNC5=NC=C4 [AZD6738]; conditions: max 10 µM
Summary of the method: as §1

AZD5991 = compound: Cc1c2c(nn1C)CSCc1cc(n(C)n1)CSc1cc(c3ccccc3c1)OCCCc1c(C(=O)O)n(C)c3c-2c(Cl)ccc13 [AZD5991]; conditions: max 1 µM
Summary of the method: as §1

AZD7648 = compound: Cc1cc2ncnn2cc1Nc1ncc2c(n1)n(C1CCOCC1)c(=O)n2C [AZD7648]; conditions: max 10 µM
Summary of the method: as §1

Taselisib = compound: Cc1nc(-c2cn3c(n2)-c2ccc(-c4cnn(C(C)(C)C(N)=O)c4)cc2OCC3)n(C(C)C)n1 [Taselisib]; conditions: max 10 µM
Summary of the method: as §1

Selumetinib = compound: Cn1cnc2c(F)c(Nc3ccc(Br)cc3Cl)c(C(=O)NOCCO)cc21 [Selumetinib]; conditions: max 10 µM
Summary of the method: as §1

SRA737 = compound: N#Cc1cnc(Nc2cc(NC[C@H]3CNCCO3)c(C(F)(F)F)cn2)cn1 [SRA737]; conditions: max 10 µM
Summary of the method: as §1

MK-2206 = compound: NC1(c2ccc(-c3nc4ccn5c(=O)[nH]nc5c4cc3-c3ccccc3)cc2)CCC1 [MK-2206]; conditions: max 10 µM
Summary of the method: as §1

Gemcitabine = compound: Nc1ccn([C@@H]2O[C@H](CO)[C@@H](O)C2(F)F)c(=O)n1 [Gemcitabine]; conditions: max 0.3 µM
Summary of the method: as §1

[1] = compound: O=C(Nc1ccc2[nH]nc(-c3ccncc3)c2c1)[C@@H]1CCN(CC(=O)N2CCN(c3ccc(-c4ncccn4)cc3)CC2)C1; conditions: max 5 µM
Summary of the method: as §1

Olaparib = compound: O=C(c1cc(Cc2n[nH]c(=O)c3ccccc23)ccc1F)N1CCN(C(=O)C2CC2)CC1 [Olaparib]; conditions: max 10 µM
Summary of the method: as §1

5-Fluorouracil = compound: O=c1[nH]cc(F)c(=O)[nH]1 [5-Fluorouracil]; conditions: max 20 µM
Summary of the method: as §1

Cell Line	IC50, cell viability 72 h (Carboplatin)	IC50, cell viability 72 h (AZD5363)	IC50, cell viability 72 h (AZD1775)	IC50, cell viability 72 h (Trametinib)	IC50, cell viability 72 h (Paclitaxel)	IC50, cell viability 72 h (Palbociclib)	IC50, cell viability 72 h (AZD1390)	IC50, cell viability 72 h (Venetoclax)	IC50, cell viability 72 h (Dasatinib)	IC50, cell viability 72 h (SG3199)	IC50, cell viability 72 h (AZD2811)	IC50, cell viability 72 h (SN-38)	IC50, cell viability 72 h (AZD0156)	IC50, cell viability 72 h (AZD4320)	IC50, cell viability 72 h (Alisertib)	IC50, cell viability 72 h (Etoposide)	IC50, cell viability 72 h (Gefitinib)	IC50, cell viability 72 h (Prexasertib)	IC50, cell viability 72 h (Doxorubicin)	IC50, cell viability 72 h (AZD5153)	IC50, cell viability 72 h (Lapatinib)	IC50, cell viability 72 h (AZD8186)	IC50, cell viability 72 h (Crizotinib)	IC50, cell viability 72 h (Savolitinib)	IC50, cell viability 72 h (AZD6738)	IC50, cell viability 72 h (AZD5991)	IC50, cell viability 72 h (AZD7648)	IC50, cell viability 72 h (Taselisib)	IC50, cell viability 72 h (Selumetinib)	IC50, cell viability 72 h (SRA737)	IC50, cell viability 72 h (MK-2206)	IC50, cell viability 72 h (Gemcitabine)	IC50, cell viability 72 h [1]	IC50, cell viability 72 h (Olaparib)	IC50, cell viability 72 h (5-Fluorouracil)
HH (T-Cell Non-Hodgkin's Lymphoma)	> 10000 nM	> 10000 nM	> 3000 nM	> 1000 nM	> 3000 nM	> 10000 nM	> 300 nM	> 1000 nM	> 2000 nM	> 1 nM	> 1000 nM	> 300 nM	> 3000 nM	> 1000 nM	> 10000 nM	> 10000 nM	> 10000 nM	186 nM	> 1000 nM	> 1000 nM	> 10000 nM	> 10000 nM	> 10000 nM	> 1000 nM	> 10000 nM	341 nM	> 10000 nM	> 10000 nM	> 10000 nM	> 10000 nM	> 10000 nM	> 300 nM	> 5000 nM	> 10000 nM	> 20000 nM
EW-11 (Ewing's Sarcoma)	> 10000 nM	> 10000 nM	> 3000 nM	> 1000 nM	35.6 nM	> 10000 nM	> 300 nM	> 1000 nM	> 2000 nM	> 1 nM	> 1000 nM	8.46 nM	> 3000 nM	210 nM	> 10000 nM	4160 nM	> 10000 nM	62.2 nM	212 nM	> 1000 nM	> 10000 nM	> 10000 nM	5630 nM	> 1000 nM	5930 nM	423 nM	> 10000 nM	1000 nM	> 10000 nM	> 10000 nM	6380 nM	55.7 nM	> 5000 nM	> 10000 nM	> 20000 nM
WSU-NHL (B-Cell Non-Hodgkin's Lymphoma)	> 10000 nM	809 nM	410 nM	> 1000 nM	< 3 nM	1280 nM	> 300 nM	64.2 nM	12.6 nM	> 1 nM	134 nM	2.41 nM	> 3000 nM	81.4 nM	73.6 nM	160 nM	> 10000 nM	15.2 nM	14.2 nM	45.9 nM	9550 nM	397 nM	4520 nM	> 1000 nM	998 nM	321 nM	> 10000 nM	70.5 nM	> 10000 nM	2310 nM	543 nM	5.25 nM	> 5000 nM	7070 nM	5460 nM
BE-13 (T-Lymphoblastic Leukemia)	> 10000 nM	> 10000 nM	161 nM	> 1000 nM	14.1 nM	3380 nM	> 300 nM	> 1000 nM	809 nM	> 1 nM	44.1 nM	16.8 nM	> 3000 nM	99.9 nM	155 nM	2340 nM	> 10000 nM	20.1 nM	326 nM	312 nM	8670 nM	> 10000 nM	585 nM	> 1000 nM	4780 nM	> 1000 nM	> 10000 nM	> 10000 nM	> 10000 nM	3730 nM	7600 nM	89.9 nM	> 5000 nM	> 10000 nM	> 20000 nM
ESS-1 (Other Solid Carcinomas)	> 10000 nM	5500 nM	151 nM	989 nM	5.06 nM	> 10000 nM	> 300 nM	> 1000 nM	125 nM	> 1 nM	533 nM	2.56 nM	> 3000 nM	> 1000 nM	3890 nM	500 nM	> 10000 nM	4.52 nM	65.3 nM	319 nM	> 10000 nM	4500 nM	4820 nM	> 1000 nM	1770 nM	> 1000 nM	> 10000 nM	1060 nM	> 10000 nM	930 nM	> 10000 nM	30.6 nM	2980 nM	> 10000 nM	> 20000 nM

— the supplement of paper PMC11061612
